Source: patent US20190002935A1, “BACTERIAL CELLS WITH IMPROVED TOLERANCE TO POLYAMINES” (DANMARKS TEKNISKE UNIVERSITET, priority 2016, published 2019)

How the values were obtained:
[1] = tested on: E. coli K-12 MG1655; assay: Growth Profiler growth of K-12 MG1655 in a range of concentrations of other polyamines and amine-containing compounds; conditions: for screening concentration for which wild-type cells could achieve a growth rate of 0.2-0.3 h^−1: K-12 MG1655, uninhibited growth 0.7-0.9 h^−1 in M9 glucose minimal medium; for tlag (lag time) / μ (growth rate): Growth Profiler
From the text: For data obtained with the Growth Profiler, improved image analysis was additionally implemented to obtain the updated growth parameters. In the Tables below, for values labeled in columns with “(1)”, integrated pixel values (which were later converted to OD600 using a calibration curve) were obtained directly from image analysis capabilities in the Growth Profiler software. In the Tables below, for values labeled in columns with “(2)”, a new algorithm was implemented that automatically detected the pixel integration region in each well in each image by locating the darkest pixels in each well. These values were converted to OD600 with a calibration run in the same manner. The new algorithm provided for an improved accuracy in determining the growth rate, since it eliminated a slowly oscillating frequency that was sometimes observed in the original data, potentially related to the practical setup when scanning the plates.
Additionally, each evolved isolate was tested for cross-tolerance toward other polyamines and amine-containing compounds of biotechnological interest. First, K-12 MG1655 was tested in the Growth Profiler screening format for growth in the presence of a range of concentrations of each compound: 1,3-diaminopropane, 1,5-diaminopentane (cadaverine), spermidine, citrulline, ethylenediamine, carnitine, and ornithine. Variable concentrations of these compounds elicited growth inhibition in E. coli K-12 MG1655 (Table 36). […] The compounds citrulline and ornithine are polyamine-containing amino acids. […] Among the only exceptions were PUTR7-1 in citrulline and PUTR5-1 and PUTR6-2 in ornithine.

[2] = tested on: Escherichia coli K-12 MG1655; assay: Screening for tolerance in wild-type cells (Biolector, varying concentrations of putrescine or HMDA); type: cell-based; conditions: for mean (1) tlag (lag time) / mean (1) μ (growth rate) / mean (2) tlag (lag time) / mean (2) μ (growth rate): K-12 MG1655; for mean (1) tlag (lag time) / mean (1) μ (growth rate): software version (1); for mean (2) tlag (lag time) / mean (2) μ (growth rate): software version (2); for maximum measured concentration at which K-12 MG1655 can grow: M9+1% glucose
Procedure: Escherichia coli K-12 MG1655 was grown overnight in M9 minimal medium+1% glucose and subcultured the following morning to an initial OD600 of 0.05 in M9+1% glucose. Cells were grown to mid-exponential phase (OD600 0.7-1.0) and were back-diluted with fresh medium to an OD600 of 0.7. […] The culture volume in each well was 1.4 mL.
For data obtained with the Biolector microbioreactor system, self-baselined growth series were imported directly into a custom software platform that automatically detects growth phases and exports growth rates and lag times.

[3] = K-12 MG1655, 5 g/L of the compound
[4] = K-12 MG1655, 10 g/L of the compound
[5] = K-12 MG1655, 20 g/L of the compound
[6] = K-12 MG1655, 25 g/L of the compound
[7] = K-12 MG1655, 30 g/L of the compound
[8] = K-12 MG1655, 40 g/L of the compound
[9] = K-12 MG1655, 45 g/L of the compound
[10] = K-12 MG1655, 50 g/L of the compound
[11] = K-12 MG1655, 60 g/L of the compound
[12] = K-12 MG1655, 75 g/L of the compound

NCCCN [1,3-diaminopropane, propane-1,3-diamine]
screening concentration for which wild-type cells could achieve a growth rate of 0.2-0.3 h^−1 [1]: 35 g/L

NCCCCCCN [HMDA, hexane-1,6-diamine]
mean (1) tlag (lag time) ([2]; 10 g/L): 1.3 h
mean (1) μ (growth rate) ([2]; 10 g/L): 0.806 h⁻¹
mean (2) tlag (lag time) ([2]; 10 g/L): 0.8 h
mean (2) μ (growth rate) ([2]; 10 g/L): 0.605 h⁻¹
mean (1) tlag (lag time) ([2]; 20 g/L): 1.4 h
mean (1) μ (growth rate) ([2]; 20 g/L): 0.601 h⁻¹
mean (2) tlag (lag time) ([2]; 20 g/L): 0.3 h
mean (2) μ (growth rate) ([2]; 20 g/L): 0.394 h⁻¹
mean (1) tlag (lag time) ([2]; 30 g/L): 1.7 h
mean (1) μ (growth rate) ([2]; 30 g/L): 0.475 h⁻¹
mean (2) tlag (lag time) ([2]; 30 g/L): 0.0 h
mean (2) μ (growth rate) ([2]; 30 g/L): 0.241 h⁻¹
mean (1) tlag (lag time) ([2]; 40 g/L): 2.6 h
mean (1) μ (growth rate) ([2]; 40 g/L): 0.216 h⁻¹
mean (2) tlag (lag time) ([2]; 40 g/L): 2.3 h
mean (2) μ (growth rate) ([2]; 40 g/L): 0.136 h⁻¹
mean (1) μ (growth rate) ([2]; 50 g/L): 0.000 h⁻¹
mean (2) μ (growth rate) ([2]; 50 g/L): 0.000 h⁻¹
mean (1) μ (growth rate) ([2]; 75 g/L): 0.000 h⁻¹
mean (2) μ (growth rate) ([2]; 75 g/L): 0.000 h⁻¹
mean (1) μ (growth rate) ([2]; 100 g/L): 0.000 h⁻¹
mean (2) μ (growth rate) ([2]; 100 g/L): 0.000 h⁻¹
concentration at which zero/no growth was detected ([2]; K-12 MG1655, M9+1% glucose, Biolector): 50 g/L
maximum measured concentration at which K-12 MG1655 can grow ([2]; Biolector): 40 g/L

NCCCCN [putrescine, butane-1,4-diamine]
mean (1) tlag (lag time) ([2]; 10 g/L): 1.4 h
mean (1) μ (growth rate) ([2]; 10 g/L): 0.698 h⁻¹
mean (2) tlag (lag time) ([2]; 10 g/L): 1.0 h
mean (2) μ (growth rate) ([2]; 10 g/L): 0.538 h⁻¹
mean (1) tlag (lag time) ([2]; 20 g/L): 2.2 h
mean (1) μ (growth rate) ([2]; 20 g/L): 0.577 h⁻¹
mean (2) tlag (lag time) ([2]; 20 g/L): 1.5 h
mean (2) μ (growth rate) ([2]; 20 g/L): 0.392 h⁻¹
mean (1) tlag (lag time) ([2]; 30 g/L): 3.4 h
mean (1) μ (growth rate) ([2]; 30 g/L): 0.350 h⁻¹
mean (2) tlag (lag time) ([2]; 30 g/L): 6.2 h
mean (2) μ (growth rate) ([2]; 30 g/L): 0.317 h⁻¹
mean (1) tlag (lag time) ([2]; 40 g/L): 12.3 h
mean (1) μ (growth rate) ([2]; 40 g/L): 0.108 h⁻¹
mean (2) tlag (lag time) ([2]; 40 g/L): 25.8 h
mean (2) μ (growth rate) ([2]; 40 g/L): 0.148 h⁻¹
mean (1) tlag (lag time) ([2]; 50 g/L): 19.8 h
mean (1) μ (growth rate) ([2]; 50 g/L): 0.023 h⁻¹
mean (2) μ (growth rate) ([2]; 50 g/L): 0.000 h⁻¹
mean (1) μ (growth rate) ([2]; 75 g/L): 0.000 h⁻¹
mean (2) μ (growth rate) ([2]; 75 g/L): 0.000 h⁻¹
mean (1) μ (growth rate) ([2]; 100 g/L): 0.000 h⁻¹
mean (2) μ (growth rate) ([2]; 100 g/L): 0.000 h⁻¹
maximum measured concentration at which K-12 MG1655 can grow ([2]; Biolector): 40 g/L

NCCC[C@H](N)C(=O)O [ornithine]
tlag (lag time) [1, 3]: 8.2 h
μ (growth rate) [1, 3]: 0.439 h⁻¹
tlag (lag time) [1, 4]: 17.1 h
μ (growth rate) [1, 4]: 0.260 h⁻¹
tlag (lag time) [1, 5]: 44.2 h
μ (growth rate) [1, 5]: 0.214 h⁻¹
tlag (lag time) [1, 6]: 53.2 h
μ (growth rate) [1, 6]: 0.150 h⁻¹
tlag (lag time) [1, 7]: 82.6 h
μ (growth rate) [1, 7]: 0.076 h⁻¹
μ (growth rate) [1, 8]: 0.000 h⁻¹
screening concentration for which wild-type cells could achieve a growth rate of 0.2-0.3 h^−1 [1]: 10 g/L

NC(=O)NCCC[C@H](N)C(=O)O [citrulline]
tlag (lag time) [1, 6]: 6.7 h
μ (growth rate) [1, 6]: 0.759 h⁻¹
tlag (lag time) [1, 7]: 7.0 h
μ (growth rate) [1, 7]: 0.702 h⁻¹
tlag (lag time) [1, 8]: 7.5 h
μ (growth rate) [1, 8]: 0.677 h⁻¹
tlag (lag time) [1, 9]: 8.6 h
μ (growth rate) [1, 9]: 0.508 h⁻¹
tlag (lag time) [1, 10]: 9.2 h
μ (growth rate) [1, 10]: 0.538 h⁻¹
tlag (lag time) [1, 11]: 10.4 h
μ (growth rate) [1, 11]: 0.437 h⁻¹
tlag (lag time) [1, 12]: 12.4 h
μ (growth rate) [1, 12]: 0.355 h⁻¹
screening concentration for which wild-type cells could achieve a growth rate of 0.2-0.3 h^−1 [1]: 80 g/L

NCCCCNCCCN [spermidine, N-(3-aminopropyl)-1,4-diaminobutane]
screening concentration for which wild-type cells could achieve a growth rate of 0.2-0.3 h^−1 [1]: 40 g/L

NCCN [ethylenediamine, 1,2-diaminoethane]
tlag (lag time) [1, 3]: 7.0 h
μ (growth rate) [1, 3]: 0.689 h⁻¹
tlag (lag time) [1, 4]: 8.5 h
μ (growth rate) [1, 4]: 0.614 h⁻¹
tlag (lag time) [1, 5]: 32.9 h
μ (growth rate) [1, 5]: 0.152 h⁻¹
μ (growth rate) [1, 6]: 0.000 h⁻¹
screening concentration for which wild-type cells could achieve a growth rate of 0.2-0.3 h^−1 [1]: 18 g/L

C[N+](C)(C)CC(O)CC(=O)[O-] (centres unmarked) [carnitine]
tlag (lag time) [1, 3]: 6.6 h
μ (growth rate) [1, 3]: 0.786 h⁻¹
tlag (lag time) [1, 4]: 7.5 h
μ (growth rate) [1, 4]: 0.545 h⁻¹
μ (growth rate) [1, 5]: 0.000 h⁻¹

N=C(N)NCCCCN [Agmatine, 1-amino-4-guanidinobutane]
tlag (lag time) [1, 4]: 5.3 h
μ (growth rate) [1, 4]: 0.700 h⁻¹
tlag (lag time) [1, 5]: 5.6 h
μ (growth rate) [1, 5]: 0.630 h⁻¹
tlag (lag time) [1, 6]: 6.1 h
μ (growth rate) [1, 6]: 0.648 h⁻¹
tlag (lag time) [1, 7]: 6.3 h
μ (growth rate) [1, 7]: 0.610 h⁻¹
tlag (lag time) [1, 8]: 7.0 h
μ (growth rate) [1, 8]: 0.632 h⁻¹
tlag (lag time) [1, 10]: 7.9 h
μ (growth rate) [1, 10]: 0.523 h⁻¹
concentration up to which the compound was non-toxic ([1]; K-12 MG1655, Growth Profiler): up to 50 g/L

NCCCCCN [cadaverine, pentane-1,5-diamine]
screening concentration for which wild-type cells could achieve a growth rate of 0.2-0.3 h^−1 [1]: 35 g/L
